According to patent US12427196B2, “Macromolecular prodrugs for light-emitting diodes and uses thereof” (Children's Medical Center Corporation, priority 2020, dated 2025):

Key:
[1] = tested on: PC12 cells; assay: Cytotoxicity, MTS cell proliferation assay; type: cell-based; details: 24 h
Protocol: (§1) Before testing the material in vivo, test materials were evaluated in vitro with C2C12 and PC12 cells to assess cytotoxicity to muscle and nerve cells respectively. Different compounds were directly added into the cell culture media (1 mg/mL, 0.33 mg/mL and 0.11 mg/mL) and incubated in the media bathing the cells (i.e. in direct contact with them) in conventional cell culture wells. After 24 h, cell viabilities were evaluated with the MTS assay, and their survival expressed as percentages of results in untreated cells. […] Due to the high molecular weight of the polymer-containing samples, their molar concentrations were perforce lower than that of the small molecule tetracaine. It would not be practical to culture cells in media containing the polymer concentration to be used in vivo (20 wt %), which would be very viscous. Therefore, test materials were placed in Transwell® inserts such that they were in continuity with the cell culture media.
(§2) Cytotoxicity analysis. For the “direct contact” experiments, the cells were incubated in 48-well plates with concentration of formulations of 1, 0.33, 0.11 mg/mL in the media for all samples. For the “indirect contact” experiments, the cells were incubated in 24-well plates with a transwell in each well, in which 50 μL of tetracaine (0.5% wt %) or P407 (20% wt %) or P407-CM-T (20% wt %) was applied. After 24 h, the cell viabilities were evaluated with MTS assay as percentages of the control.

[2] = tested on: C2C12 cells; assay: Cytotoxicity, MTS cell proliferation assay; type: cell-based; details: 24 h
Protocol: as §1, §2

[3] = tested on: rat footpad; assay: Phototriggered local anesthesia (nerve block) after rat footpad injection, Touch Test neurobehavioral testing; type: in vivo; details: irradiance 0 W/cm^2, irradiation duration 0 min (no irradiation)
Protocol: The effectiveness of light-triggered anesthesia using P407-CM-T was assessed in vivo after footpad injection in the rat (Table 1);^17, 28-32 this model was selected because it was anticipated that 400 nm light would not penetrate deeply into tissue.^33
A hundred microliters of 20 wt % P407-CM-T were injected into the plantar aspect of the rat hind paw. […] Irradiation of the site of administration immediately after injection with a 400 nm LED at 200 mW/cm^2 for two minutes caused local anesthesia lasting 19.5±4.5 min (FIGS. 5A-5B). Local anesthesia was prolonged to 36.5±8.9 min (FIG. 5B) by increasing the irradiance to 300 mW/cm^2 also for 2 minutes (p<0.05 compared to 200 mW/cm^2). Extending the irradiation time to five minutes at 300 mW/cm^2 further extended local anesthesia to 66.7±24 min (p<0.05 compared to 300 mW/cm^2 for 2 min, FIG. 5B).
It would be important for a light-triggerable local anesthetic system to be triggered repeatedly, so as to be able to treat pain over an extended period. To assess the ability of P407-CM-T to provide repeated on-demand local anesthesia, animals were injected in the footpad with 0.1 mL of 20 wt % P407-CM-T (FIG. 4D). […] The animal was then irradiated at the site of injection with 400 nm light at 300 mW/cm^2 for 2 min. […]

CCCCNc1ccc(C(=O)OCCN(C)C)cc1 [Tetracaine, tetracaine]
Cell viability (MTS) ([1]; PC12, Transwell inserts, tetracaine 0.5% wt %, P407 20% wt %, P407-CM-T 20% wt %): greatly reduced cell survival
Cytotoxicity (cell survival, MTS) ([1]; PC12, direct contact, 1, 0.33 and 0.11 mg/mL in media): high cytotoxicity
Cell viability (MTS) ([2]; C2C12, Transwell inserts, tetracaine 0.5% wt %, P407 20% wt %, P407-CM-T 20% wt %): greatly reduced cell survival
Cytotoxicity (cell survival, MTS) ([2]; C2C12, direct contact, 1, 0.33 and 0.11 mg/mL in media): high cytotoxicity
Duration of Block [3]: 28.6 ± 7.1 min
